Patent US20230011571A1, “SMALL MOLECULE FURIN INHIBITORS FOR TREATING INFECTIOUS DISEASES” (BP Asset V, Inc., priority 2019, published 2023)

Tests used:
Assay type in all cases: cell-based
[1] = tested on: Marburg virus (MARV); test: organism not typed; conditions: Vero, 72 h, read-out: Percent viral inhibition MARV
[2] = tested on: dengue virus (DENV); test: microbe, parasite or virus in culture; conditions: Dengue virus, Vero, 120 h, read-out: Percent viral inhibition DENY
[3] = tested on: Chikungunya virus (CHIKV); test: microbe, parasite or virus in culture; conditions: Chikungunya virus, Vero, 48 h, read-out: Percent viral inhibition CHKV

| Structure (SMILES) | inhibition at 1 µM [1] | inhibition at 1 µM [2] | inhibition at 1 µM [3] |
| --- | --- | --- | --- |
| COC(=O)NCC1CCN(Cc2cc(Oc3cnc(N4CCN(CCC(=O)O)[C@@H](C)C4)nc3)nc(-c3cc(Cl)cc(Cl)c3)c2)CC1 [Example 294, (S)-3-(4-(5-((6-(3,5-dichlorophenyl)-4-((4-(((methoxycarbonyl)amino)methyl)piperidin-1-yl)methyl)pyridin-2-yl)oxy)pyrimidin-2-yl)-2-methyl-piperazin-1-yl)propanoic acid] | 54.2% | 57.7% | 28.7% |
| C[C@@H](O)CN1CCN(c2ncc(Oc3cc(CN4CCC(CC(=O)O)CC4)cc(-c4cc(Cl)cc(Cl)c4)n3)cn2)CC1 [Example 298, (R)-2-(1-((2-(3,5-dichlorophenyl)-6-((2-(4-(2-hydroxypropyl)piperazin-1-yl)pyrimidin-5-yl)oxy)pyridin-4-yl)methyl)piperidin-4-yl)acetic acid] | 55.1% | 57% | 20.7% |
| O=C(O)CC1CCN(Cc2cc(Oc3ccc(N4CCN(CCO)CC4)nc3)nc(-c3cc(Cl)cc(Cl)c3)c2)CC1 [Example 300, 2-(1-((2-(3,5-dichlorophenyl)-6-((6-(4-(2-hydroxyethyl)piperazin-1-yl)pyridin-3-yl)oxy)pyridin-4-yl)methyl)piperidin-4-yl)acetic acid] | 45% | 0% | 18.2% |
| CC(CC1CCN(Cc2cc(Oc3cnc(N4CCN(C[C@@H](C)O)CC4)nc3)nc(-c3cc(Cl)cc(Cl)c3)c2)CC1)C(=O)O (stereo partly drawn) [Example 301, 3-(1-((2-(3,5-dichlorophenyl)-6-((2-(4-((R)-2-hydroxypropyl)piperazin-1-yl)pyrimidin-5-yl)oxy)pyridin-4-yl)methyl)piperidin-4-yl)-2-methylpropanoic acid] | 68.4% | 56.1% | 28.8% |
| CC(=O)NCC1CCN(Cc2cc(Oc3cnc(N4CCN(C[C@@H](C)O)CC4)nc3)nc(-c3cc(Cl)cc(Cl)c3)c2)CC1 [Example 302, (R)-N-((1-((2-(3,5-dichlorophenyl)-6-((2-(4-(2-hydroxypropyl)piperazin-1-yl)pyrimidin-5-yl)oxy)pyridin-4-yl)methyl)piperidin-4-yl)methyl)acetamide] | 56.9% | 26.6% | 39% |
| CC(=O)NCC1CCN(Cc2cc(Oc3cnc(N4CCN(CC(C)(C)O)CC4)nc3)nc(-c3cc(Cl)cc(Cl)c3)c2)CC1 [Example 303, N-((1-((2-(3,5-dichlorophenyl)-6-((2-(4-(2-hydroxy-2-methylpropyl)piperazin-1-yl)pyrimidin-5-yl)oxy)pyridin-4-yl)methyl)piperidin-4-yl)methyl)acetamide] | 49.6% | 34.4% | 33.4% |
| CC(=O)NCC1CCN(Cc2cc(Oc3cnc(N4CCN(CC(O)CF)CC4)nc3)nc(-c3cc(Cl)cc(Cl)c3)c2)CC1 (stereo not drawn) [Example 304, N-((1-((2-(3,5-dichlorophenyl)-6-((2-(4-(3-fluoro-2-hydroxypropyl)piperazin-1-yl)pyrimidin-5-yl)oxy)pyridin-4-yl)methyl)piperidin-4-yl)methyl)acetamide] | 12.4% | 41.8% | 0% |
| O=C(O)CC1CCN(Cc2cc(Oc3cnc(N4CCN(CCO)CC4)nc3)nc(-c3cc(Cl)cc(Cl)c3)c2)CC1 [Example 306, 2-(1-((2-(3,5-dichlorophenyl)-6-((2-(4-(2-hydroxyethyl)piperazin-1-yl)pyrimidin-5-yl)oxy)pyridin-4-yl)methyl)piperidin-4-yl)acetic acid] | 51.1% | 7.27% | 13.6% |
| CNC(=O)OCC1CCN(Cc2cc(Oc3cnc(N4CCN(C[C@@H](C)O)CC4)nc3)nc(-c3cc(Cl)cc(Cl)c3)c2)CC1 [Example 308, (R)-(1-((2-(3,5-dichlorophenyl)-6-((2-(4-(2-hydroxypropyl)piperazin-1-yl)pyrimidin-5-yl)oxy)pyridin-4-yl)methyl)piperidin-4-yl)methylmethylcarbamate] | 23.7% | 0% | 0% |
| CNC(=O)NCC1CCN(Cc2cc(Oc3cnc(N4CCN(C[C@@H](C)O)CC4)nc3)nc(-c3cc(Cl)cc(Cl)c3)c2)CC1 [Example 310, (R)-1-((1-((2-(3,5-dichlorophenyl)-6-((2-(4-(2-hydroxypropyl)piperazin-1-yl)pyrimidin-5-yl)oxy)pyridin-4-yl)methyl)piperidin-4-yl)methyl)-3-methylurea] | 18% | 19.3% | 2.85% |
| COC(=O)NCC1CCN(Cc2cc(Oc3cnc(N4CCN(CCO)CC4)nc3)nc(-c3cc(Cl)cc(Cl)c3)c2)CC1 [Example 311, methyl((1-((2-(3,5-dichlorophenyl)-6-((2-(4-(2-hydroxyethyl)piperazin-1-yl)pyrimidin-5-yl)oxy)pyridin-4-yl)methyl)piperidin-4-yl)methyl)carbamate] | 17.5% | 0% | 8.41% |
| O=C(O)CCC1CCN(Cc2cc(Oc3ccc(N4CCN(CCO)CC4)nc3)nc(-c3cc(Cl)cc(Cl)c3)c2)CC1 [Example 314, 3-(1-((2-(3,5-dichlorophenyl)-6-((6-(4-(2-hydroxyethyl)piperazin-1-yl)pyridin-3-yl)oxy)pyridin-4-yl)methyl)piperidin-4-yl)propanoic acid] | 52.1% | 7.86% | 32% |
| CC(=O)NCC1CCN(Cc2cc(Oc3cnc(N4CCN(CC(O)C(=O)O)CC4)nc3)nc(-c3cc(Cl)cc(Cl)c3)c2)CC1 (stereo not drawn) [Example 316, 3-(4-(5-((4-((4-(acetamidomethyl)piperidin-1-yl)methyl)-6-(3,5-dichlorophenyl)pyridin-2-yl)oxy)pyrimidin-2-yl)piperazin-1-yl)-2-hydroxypropanoic acid] | 54.4% | 55.9% | 30.6% |
| C[C@@H](O)CN1CCN(c2ncc(Oc3cc(CN4CCC(OCC(=O)O)CC4)cc(-c4cc(Cl)cc(Cl)c4)n3)cn2)CC1 [Example 317, (R)-2-((1-((2-(3,5-dichlorophenyl)-6-((2-(4-(2-hydroxypropyl)piperazin-1-yl)pyrimidin-5-yl)oxy)pyridin-4-yl)methyl)piperidin-4-yl)oxy)acetic acid] | 53.6% | 20.2% | 14.8% |
| CN1CCN(c2ncc(Oc3cc(CN4CCC(CB(O)O)CC4)cc(-c4cc(Cl)cc(Cl)c4)n3)cn2)CC1 [Example 318, ((1-((2-(3,5-dichlorophenyl)-6-((2-(4-methylpiperazin-1-yl)pyrimidin-5-yl)oxy)pyridin-4-yl)methyl)piperidin-4-yl)methyl)boronic acid] | 31.6% | 44.6% | 15.3% |
| CN1CCN(c2ncc(Oc3cc(CN4CCC(CP(C)(C)=O)CC4)cc(-c4cc(Cl)cc(Cl)c4)n3)cn2)CC1 [Example 320, ((1-((2-(3,5-dichlorophenyl)-6-((2-(4-methylpiperazin-1-yl)pyrimidin-5-yl)oxy)pyridin-4-yl)methyl)piperidin-4-yl)methyl)dimethylphosphineoxide] | 52.5% | 15.3% | 17.5% |
| CN1CCN(c2ncc(Oc3cc(CN4CC[C@@H]5[C@H](CC4)[C@H]5C(=O)O)cc(-c4cc(Cl)cc(Cl)c4)n3)cn2)CC1 [Example 321, (1R,7S,8r)-4-((2-(3,5-dichlorophenyl)-6-((2-(4-methylpiperazin-1-yl)pyrimidin-5-yl)oxy)pyridin-4-yl)methyl)-4-azabicyclo[5.1.0]octane-8-carboxylic acid] | 43.4% | 27.3% | 23.8% |
| CN1CCN(c2ncc(Oc3cc(CN4CCC(CCB(O)O)CC4)cc(-c4cc(Cl)cc(Cl)c4)n3)cn2)CC1 [Example 323, (2-(1-((2-(3,5-dichlorophenyl)-6-((2-(4-methylpiperazin-1-yl)pyrimidin-5-yl)oxy)pyridin-4-yl)methyl)piperidin-4-yl)ethyl)boronic acid] | 30.7% | 0% | 5.87% |
| COC(=O)NC(=O)NCC1CCN(Cc2cc(Oc3cnc(N4CCN(C)CC4)nc3)nc(-c3cc(Cl)cc(Cl)c3)c2)CC1 [Example 325, N-1-((1-((2-(3,5-dichlorophenyl)-6-((2-(4-methylpiperazin-1-yl)pyrimidin-5-yl)oxy)pyridin-4-yl)methyl)piperidin-4-yl)methyl)-N′-methoxyl-carbonylurea] | 0% | 5.08% | 0% |
| CN1CCN(c2ncc(Oc3cc(CN4CCC(CNC(=O)NS(C)(=O)=O)CC4)cc(-c4cc(Cl)cc(Cl)c4)n3)cn2)CC1 [Example 326, N-(((1-((2-(3,5-dichlorophenyl)-6-((2-(4-methylpiperazin-1-yl)pyrimidin-5-yl)oxy)pyridin-4-yl)methyl)piperidin-4-yl)methyl)carbamoyl)methane-sulfonamide] | 63.9% | 45.5% | 22.7% |
| CC(=O)NC(=O)NCC1CCN(Cc2cc(Oc3cnc(N4CCN(C)CC4)nc3)nc(-c3cc(Cl)cc(Cl)c3)c2)CC1 [Example 327, N-(((1-((2-(3,5-dichlorophenyl)-6-((2-(4-methylpiperazin-1-yl)pyrimidin-5-yl)oxy)pyridin-4-yl)methyl)piperidin-4-yl)methyl)carbamoyl)acetamide] | 63.8% | 0% | 0% |
| CN1CCN(c2ncc(Oc3cc(CN4CCC(NC(=O)NS(C)(=O)=O)CC4)cc(-c4cc(Cl)cc(Cl)c4)n3)cn2)CC1 [Example 328, N-((1-((2-(3,5-dichlorophenyl)-6-((2-(4-methylpiperazin-1-yl)pyrimidin-5-yl)oxy)pyridin-4-yl)methyl)piperidin-4-yl)carbamoyl)methanesulfonamide] | 49.5% | 55.8% | 37.5% |
